Tests used:
rat [1] = conditions: Subchronic oral toxicity in rodents, sprague dawley, Water, dose end: 90 day, group: systemic
mouse [2] = conditions: Combined chronic toxicity/carcinogenicity; b6c3f1; Oral; Gavage/Intubation; dose end: 52 week; group: systemic; systemic / organ weight / liver / absolute + systemic / organ weight / liver / relative to body weight + systemic / pathology microscopic / …
mouse [3] = conditions: Sub-acute repeat dose toxicity; Oral; Gavage/Intubation; dose end: 14 day; group: systemic; systemic / clinical chemistry / [other] / [other] + systemic / clinical chemistry / cytochrome p450, nos / cytochrome p450, nos + systemic…
primate [4] = conditions: Sub-acute repeat dose toxicity; Oral; Gavage/Intubation; dose end: 8 day; group: systemic; systemic / in life observation / clinical signs / emesis
primate [5] = conditions: Sub-acute repeat dose toxicity, Oral, Gavage/Intubation, dose end: 34 day, group: systemic
rat [6] = conditions: Sub-acute repeat dose toxicity, sprague dawley, Oral, Gavage/Intubation, dose end: 14 day, group: systemic
mouse [7] = conditions: Sub-acute repeat dose toxicity, Oral, Gavage/Intubation, dose end: 14 day, group: systemic
primate [8] = conditions: Sub-acute repeat dose toxicity; Oral; Gavage/Intubation; dose end: 4 day; group: systemic; systemic / clinical chemistry / chloride / chlorine + systemic / clinical chemistry / cholesterol / cholesterol + systemic / clinical …
mouse [9] = conditions: Sub-acute repeat dose toxicity; Oral; Gavage/Intubation; dose end: 14 day; group: systemic; systemic / clinical chemistry / [other] / [other] + systemic / clinical chemistry / cytochrome p450, nos / cytochrome p450, nos + systemic…; remark: listed apart in the source
rat [10] = conditions: Sub-acute repeat dose toxicity; sprague dawley; Oral; Gavage/Intubation; dose end: 8 day; group: systemic; systemic / clinical chemistry / potassium / potassium + systemic / in life observation / body weight / body weight + systemic / clinical …
rat [11] = conditions: Sub-acute repeat dose toxicity, sprague dawley, Oral, Gavage/Intubation, dose end: 34 day, group: systemic
rat [12] = conditions: Sub-acute repeat dose toxicity; sprague dawley; Oral; Gavage/Intubation; dose end: 14 day; group: systemic; systemic / clinical chemistry / [other] / [other] + systemic / clinical chemistry / 5' nucleotidase / 5' nucleotidase + systemic / clinical …
dog = conditions: Sub-acute repeat dose toxicity; beagle; Oral; Capsule; dose end: 1 month; group: systemic; systemic / in life observation / clinical signs / defecation (diarrhea) + systemic / in life observation / clinical signs / emesis + …
rat [13] = conditions: Sub-acute repeat dose toxicity, sprague dawley, Oral, Gavage/Intubation, dose end: 28 day, group: systemic
[14] = systemic / clinical chemistry / alanine aminotransferase (alt/sgpt) / alanine aminotransferase (alt/sgpt) + systemic / clinical chemistry / …
[15] = systemic / clinical chemistry / protein / protein
[16] = systemic / organ weight / liver / absolute + systemic / clinical chemistry / hepatic mixed function oxidase (mfo) assay / hepatic mixed …
[17] = systemic / organ weight / liver / absolute + systemic / in life observation / clinical signs / arrhythmia + systemic / in life observation…
[18] = systemic / clinical chemistry / cholesterol / cholesterol + systemic / clinical chemistry / globulins / globulins + systemic / clinical …
[19] = systemic / clinical chemistry / [other] / [other] + systemic / clinical chemistry / cytochrome p450, nos / cytochrome p450, nos + systemic…
[20] = systemic / organ weight / liver / relative to body weight
[21] = systemic / clinical chemistry / hepatic mixed function oxidase (mfo) assay / hepatic mixed function oxidase (mfo) assay
[22] = systemic / hematology / erythrocyte (rbc) count differential / erythrocyte (rbc) + systemic / in life observation / mortality / mortality + …
[23] = systemic / clinical chemistry / glucose / glucose + systemic / clinical chemistry / cholesterol / cholesterol
[24] = systemic / clinical chemistry / glucose / glucose + systemic / hematology / platelet / platelet + systemic / pathology microscopic / liver…

In the case of O=C(O)C(Cl)Cl [Dichloroacetic acid], the LOAEL (rat [1]; [14]) was > 345 mg/kg/day, the NOAEL (rat [1]; [14]) was ≥ 345 mg/kg/day and the LEL (rat [1]; [15]) was 3.9 mg/kg/day. For the same molecule, the NEL (rat [1]; [15]) was < 3.9 mg/kg/day, the LEL (mouse [2]) was 133 mg/kg/day and the LOAEL (mouse [2]) was > 267 mg/kg/day. For the same molecule, the NEL (mouse [2]) was < 133 mg/kg/day and the NOAEL (mouse [2]) was ≥ 267 mg/kg/day.
NC(=O)N(O)Cc1ccc2c(c1)CCCN2CCCc1ccccc1 was tested, and the LEL (mouse [3]) was 200 mg/kg/day, the LOAEL (mouse [3]) was > 200 mg/kg/day and the NEL (mouse [3]) was < 200 mg/kg/day. The NOAEL (mouse [3]) was ≥ 200 mg/kg/day, the LEL (primate [4]) was 150 mg/kg/day and the LOAEL (primate [4]) was > 150 mg/kg/day. For the same molecule, the NEL (primate [4]) was < 150 mg/kg/day, the NOAEL (primate [4]) was ≥ 150 mg/kg/day and the LEL (primate [5]; [16]) was 5 mg/kg/day. The NEL (primate [5]; [16]) was < 5 mg/kg/day, the LOAEL (primate [5]; [17]) was > 100 mg/kg/day and the NOAEL (primate [5]; [17]) was ≥ 100 mg/kg/day. For the same molecule, the LOAEL (rat [6]; [18]) was > 100 mg/kg/day, the NEL (rat [6]; [18]) was 10 mg/kg/day and the NOAEL (rat [6]; [18]) was ≥ 100 mg/kg/day. For the same molecule, the LEL (rat [6]; systemic / clinical chemistry / triglycerides / triglycerides + systemic / organ weight / liver / relative to body weight + systemic / …) was 32 mg/kg/day, the LOAEL (mouse [7]; [19]) was > 200 mg/kg/day and the NOAEL (mouse [7]; [19]) was ≥ 200 mg/kg/day. The LEL (mouse [7]; [20]) was 50 mg/kg/day, the NEL (mouse [7]; [20]) was < 50 mg/kg/day and the LEL (primate [8]) was 300 mg/kg/day. For the same molecule, the LOAEL (primate [8]) was > 300 mg/kg/day, the NEL (primate [8]) was < 300 mg/kg/day and the NOAEL (primate [8]) was ≥ 300 mg/kg/day. For the same molecule, the LEL (mouse [9]) was 200 mg/kg/day, the LOAEL (mouse [9]) was > 200 mg/kg/day and the NEL (mouse [9]) was < 200 mg/kg/day. For the same molecule, the NOAEL (mouse [9]) was ≥ 200 mg/kg/day, the LEL (rat [10]) was 400 mg/kg/day and the LOAEL (rat [10]) was > 400 mg/kg/day. For the same molecule, the NEL (rat [10]) was < 400 mg/kg/day, the NOAEL (rat [10]) was ≥ 400 mg/kg/day and the LEL (rat [11]; [21]) was 10 mg/kg/day. For the same molecule, the NEL (rat [11]; [21]) was < 10 mg/kg/day, the LOAEL (rat [11]; [22]) was > 200 mg/kg/day and the NOAEL (rat [11]; [22]) was ≥ 200 mg/kg/day. The LEL (rat [12]) was 200 mg/kg/day, the LOAEL (rat [12]) was > 200 mg/kg/day and the NEL (rat [12]) was < 200 mg/kg/day. The NOAEL (rat [12]) was ≥ 200 mg/kg/day.
In the case of COc1cc(C(C)C)c2c(c1)S(=O)(=O)N(COc1cc(=O)n3cccc(OCCN4CCCCC4)c3n1)C2=O, the LEL (dog) was 10 mg/kg/day, the LOAEL (dog) was > 100 mg/kg/day and the NEL (dog) was < 10 mg/kg/day. The NOAEL (dog) was ≥ 100 mg/kg/day, the LEL (rat [13]; [23]) was 30 mg/kg/day and the NEL (rat [13]; [23]) was < 30 mg/kg/day. The LOAEL (rat [13]; [24]) was 100 mg/kg/day and the NOAEL (rat [13]; [24]) was 30 mg/kg/day.

Reference: EPA's ToxRefDB 2
